Assay results taken from article PMC8767159, “Multiparameter Optimization of Trypanocidal Cruzain Inhibitors With In Vivo Activity and Favorable Pharmacokinetics” (Frontiers in Pharmacology, 2022).

Key:
[1] = Fraction unbound by equilibrium dialysis; format: in vitro ADME; settings: Table S5; fraction unbound
Procedure: The fraction unbound (fu) ([Masimirembwa et al., 2003]) of the test compounds was determined after incubation with different media, namely, plasma, microsomes, and buffer with 10% FCS. Equilibrium dialysis was performed in a 96-well plate (HT-Dialysis, Gales Ferry, CT) in which each well was divided by a semipermeable membrane (12–14 kDa cutoff). The test compounds diluted in either plasma, microsome suspension, or buffer were added to one side of the membrane. Potassium phosphate buffer (50 mM, pH 7.4) was added to the other side of the membrane. A standard curve was used to calculate the compound concentration (fu) on each side of the membrane. Stock solutions of each compound were prepared in 100% DMSO to obtain a final concentration of 1 mM. The following compound concentrations were used: 1, 2, 20, 200, 2,000 and 5,000 nM. To 500 μl of medium, 0.5 μl of the compound stock solution was added, and this was applied to one side of the well. Each compound was evaluated in triplicate. Next, the plate was assembled, sealed, and incubated at 37°C under rotation (150 rpm) for 4 h. After the incubation period, the plates were subjected to LC-MS/MS.

[2] = In vitro metabolic stability in mouse liver microsomes; format: in vitro ADME; settings: for CLint (L/h/kg) Mouse: Table S5; for CLint_u (L/h/kg) Mouse: Table S5, CLint/fu
Procedure: (§1) Isolated mouse (BD Gentest, Bedford, MA) and human liver microsomes (XenoTech, Kansas City, KS) ([Plant, 2004]) were added at a final concentration of 0.25 mg/ml to a solution containing 40 mM dibasic potassium phosphate and 10 mM monobasic potassium phosphate. Stock solutions of compounds at 5 mM were prepared in 100% DMSO. A 50:50 quenching solution of acetonitrile (ACN) and methanol (MeOH) was prepared. An NADPH solution was prepared at 10 mM. The preparations containing the microsomes were added to each well of the incubation plate (450 µl), which was then heated to 37°C for 10 min. The compounds were added to the respective wells of the test plate (2 µl). Then, 300 µl of the microsome preparation was added to each well of the test plate. The test plate was heated under gentle rotation for 5 min at 37°C. Next, 90 µl of the mixture contained in the test plate was added to the incubation plate, making a final volume of 540 µl. Samples were collected at the following incubation times: 0, 5, 10, 15, 20, and 30 min. To the 0 min sample plate, quenching solution (180 µl), NADPH (6 µl), and the incubation plate mixture (54 µl) were added to each well. The sample plate was then sealed, homogenized, and stored at 4°C. Then, 54 µl of the NADPH solution was added to the incubation plate, which was homogenized. Before the collection of each sample at the established times, 45 µl of the quenching solution was added to each well of the corresponding sample plates. After reaching the incubation times, 60 µl of the mixture contained in the incubation plate was added to the corresponding sample plates. The sample plates were then sealed and stored at 4°C. After the collection of the last sample (30 min), all sample plates were centrifuged at 3,800 rpm for 30 min. The supernatant from each well was collected and transferred to clean plates for mass spectrometry. Five to 10 µl of each sample was injected into an AB Sciex Triple Quad 5500 LC-MS/MS instrument.
(§2) For the biotransformation experiments and analysis of metabolites in microsomes, an Ultra-High-Pressure Liquid Chromatography instrument (UHPLC, Thermo Accela, Waltham, MA) ([Spaggiari et al., 2014]) connected to an automatic sample injector and a 1250 series pump was used. The UHPLC system was connected to a Thermo Fisher (Waltham, MA) LTQ Orbitrap mass spectrometer. For all other analyses, an AB Sciex Triple Quad 5500 coupled to a UHPLC equipped with a UV 1290 diode detector (Agilent Technologies, Santa Clara, CA) and a CTC PAL self-collecting system (LEAP Technologies, Carrboro, NC) was used. Q1 MS positive ion mode (300–500 Da) was used to detect the ions of the parent compounds. The UV detector was operated in spectral mode (250–280 nm). A Hypersil Gold C18 (2.1 mm × 100 mm, 1.9 µm, Thermo Fisher) HPLC column was used. The mobile phases were solvent A (0.1% formic acid in water) and solvent B (0.1% formic acid in ACN). The flow was adjusted to 0.55 ml/min, and the injection volume was adjusted to […]. The gradient started with 1% solvent B for 0.4 min, reached 40% (solvent B) in 2.3 min and 95% (solvent B) in 0.67 min, was maintained for 0.5 min, and returned to the initial condition of 1%. This condition was maintained for 1 min before injection of the next sample. The peak area ratio (peak area of the test compounds/peak area of the control compounds) was converted to the percentage of remaining compound, with the 0 min time point ratio set to 100%. T½ and CLint were calculated from the percentage of remaining compound versus the incubation time. From the resulting function, the slope (k) was determined. The equations T1/2 (min) = ln(2)/k and CLint in vitro (μL/min/mg) = k*1000/0.25 were used to determine T½ and CLint.

[3] = In vitro metabolic stability in human liver microsomes; format: in vitro ADME; settings: for CLint (L/h/kg) Human: Table S5; for CLint_u (L/h/kg) Human: Table S5, CLint/fu
Procedure: as §1, §2

[4] = Cytotoxicity MTS assay in HFF-1 fibroblasts; format: cell-based; settings: human HFF-1 fibroblasts
Procedure: The synthesized compounds were evaluated for their cytotoxicity against HFF-1 cells using the MTS assay (Promega, Madison, WI) ([Barltrop et al., 1991]) as previously described ([Ferreira et al., 2019]). HFF-1 fibroblasts were plated at 2 × 10^3/well in 96-well culture plates in RPMI 1640 without phenol red enriched with 10% FCS and incubated overnight at 37°C and 5% CO2. Next, 7 concentrations (0.1–100 µM) of the compounds were added in 3-fold serial dilutions, each concentration in triplicate, and the plates were incubated for 72 h at 37°C and 5% CO2. Next, 20 µl of MTS was added to each well, and the plates were incubated for an additional 4 h at 37°C and 5% CO2. The absorbance was measured at 490 nm using a spectrophotometer, and the data were transferred to SigmaPlot 10.0 (Systat Software Inc., Erkrath, Germany) to determine the IC50 values. Doxorubicin (Sigma–Aldrich) was used as a positive control, and untreated wells (100% growth) were used as negative controls in all plates. All compounds were tested in two independent assays.

Row | Structure (SMILES) | fu [1] | CLint (L/h/kg) Mouse [2] [L/h/kg] | CLint_u (L/h/kg) Mouse [2] | CLint (L/h/kg) Human [3] [L/h/kg] | CLint_u (L/h/kg) Human [3] | IC50 at 72 h [4] [nM]
1 | COc1ccc2[nH]c(CCNC(=O)COc3ccc4ccccc4c3Br)nc2c1 [Compound 53] | 0.18 | 500.00 | 2,793.30 L/h/kg | 72.40 | 404.47 L/h/kg | –
2 | Cc1ccc2[nH]c(CCNC(=O)COc3ccc4ccccc4c3Br)nc2c1 [Compound 54] | 0.05 | 528.00 | – | 65.00 | 1,334.7 L/h/kg | –
3 | CC(=O)NCCc1nc2ccccc2n1CCOc1ccccc1 [Compound 55] | 0.91 | 35.90 | 39.06 L/h/kg | 1.78 | 1.94 L/h/kg | –
4 | CC(=O)NCCc1nc2ccccc2n1CCOCc1ccccc1 [Compound 56] | 0.97 | 95.10 | 98.14 L/h/kg | 4.75 | 4.90 L/h/kg | –
5 | CC(=O)NCCc1nc2ccccc2n1CCOc1ccccc1Br [Compound 57] | 0.94 | 306.00 | 325.19 L/h/kg | 9.38 | 9.97 L/h/kg | –
6 | COc1cccc2c1C(=O)c1c(O)c3c(c(O)c1C2=O)C[C@@](O)(C(=O)CO)C[C@@H]3O[C@H]1C[C@H](N)[C@H](O)[C@H](C)O1 [Doxorubicin, reference compound] | – | – | – | – | – | 260

Now from value to compound, other results behind:

Row | fu [1] | CLint (L/h/kg) Mouse [2] [L/h/kg] | CLint_u (L/h/kg) Mouse [2] | CLint (L/h/kg) Human [3] [L/h/kg] | CLint_u (L/h/kg) Human [3] | Structure (SMILES) | IC50 at 72 h [4] [nM]
7 | 0.84 | 536.00 | 641.15 L/h/kg | 14.20 | 16.99 L/h/kg | O=C(CCOc1ccccc1)NCCc1c[nH]c2ccccc12 [Compound 58] | –
8 | 0.96 | 433.00 | 453.17 L/h/kg | 61.50 | 64.36 L/h/kg | Cc1cc(C)c(C#N)c(SCC(=O)NCCc2nc3ccccc3[nH]2)n1 [Compound 59] | –
9 | 0.79 | 485.00 | 608.53 L/h/kg | 155.00 | 194.48 L/h/kg | Cc1cc(C)c(C#N)c(SCC(=O)NCCc2c[nH]c3ccccc23)n1 [Compound 60] | –
10 | 0.04 | 355.00 | – | 157.00 | 3,634.26 L/h/kg | O=C(COc1ccc2ccccc2c1Br)NCCc1nc2ccccc2n1CCC(=O)c1cccs1 [Compound 61] | –
11 | 0.02 | 331.00 | – | 125.00 | 5,186.72 L/h/kg | COc1cccc(C(=O)CCn2c(CCNC(=O)COc3ccc4ccccc4c3Br)nc3ccccc32)c1 [Compound 62] | –
12 | 0.02 | 50.10 | 2,609.38 L/h/kg | 40.40 | 2,104.17 L/h/kg | COc1ccc(C(=O)Cn2c(CCNC(=O)COc3ccc4ccccc4c3Br)nc3ccccc32)cc1 [Compound 63] | –
